pIC50: −log10 of the molar value. Bridge positions count the residues as written; N and C are the ends. Square brackets hold non-standard residues; d marks the D form. Peptide text beside a SMILES is read from it. NMeY = CN[C@@H](Cc1ccc(O)cc1)C(=O)O; NMeF = CN[C@@H](Cc1ccccc1)C(=O)O; NMeN = CN[C@@H](CC(N)=O)C(=O)O; NMeL = CN[C@@H](CC(C)C)C(=O)O; NMeS = CN[C@@H](CO)C(=O)O; Sar = CNCC(=O)O

Here are results for 14 molecules from ChEMBL document CHEMBL6083183, “Discovery and Hit to Lead Optimization of Macrocyclic Peptides as Novel Tropomyosin Receptor Kinase A Antagonists” (J Med Chem, 2024).

Data set [1] has as its system Rattus norvegicus. Nature of the data set: Analgesic activity in iv dosed rat Brennan's incision pain model assessed as reduction in pain measured after 15 mins. The format is functional, organism-based. The conditions noted are these: dose 0.5-1 mg/kg.
A short description of data set [2]: Stability in rat serum assessed as half-life incubated for 22 to 24 hrs by LC-MS/MS method. The format is ADME, cell-free. The conditions noted are these: time 22-24 hrs.
For data set [3], the target named is High affinity nerve growth factor receptor (Homo sapiens, UniProt P04629). Nature of the data set: Inhibition of human TrkA assessed as beta-galactosidase activity pretreated with NGF followed by […] and measured after 180 mins by pathhunter assay.
High affinity nerve growth factor receptor, sequence (P04629 whole entry): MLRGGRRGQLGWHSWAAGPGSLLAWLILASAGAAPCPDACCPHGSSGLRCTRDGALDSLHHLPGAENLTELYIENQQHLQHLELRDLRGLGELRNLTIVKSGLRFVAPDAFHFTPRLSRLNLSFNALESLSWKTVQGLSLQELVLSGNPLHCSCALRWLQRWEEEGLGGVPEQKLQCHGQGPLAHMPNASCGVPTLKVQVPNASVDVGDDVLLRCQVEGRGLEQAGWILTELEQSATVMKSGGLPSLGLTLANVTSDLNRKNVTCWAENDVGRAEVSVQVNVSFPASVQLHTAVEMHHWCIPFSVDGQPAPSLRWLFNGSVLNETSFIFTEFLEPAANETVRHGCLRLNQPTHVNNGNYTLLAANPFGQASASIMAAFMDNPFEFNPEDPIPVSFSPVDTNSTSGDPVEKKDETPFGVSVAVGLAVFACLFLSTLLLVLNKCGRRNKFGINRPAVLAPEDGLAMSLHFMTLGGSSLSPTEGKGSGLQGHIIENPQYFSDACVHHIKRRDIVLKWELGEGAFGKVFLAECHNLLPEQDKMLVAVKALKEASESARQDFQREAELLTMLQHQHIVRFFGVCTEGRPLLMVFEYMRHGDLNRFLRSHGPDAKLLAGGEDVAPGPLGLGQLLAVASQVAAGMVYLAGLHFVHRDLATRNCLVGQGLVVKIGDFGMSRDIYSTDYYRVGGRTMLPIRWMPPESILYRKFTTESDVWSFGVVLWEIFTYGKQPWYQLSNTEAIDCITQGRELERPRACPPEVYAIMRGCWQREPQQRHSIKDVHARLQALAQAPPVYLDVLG
The nature of data set [4]: Stability in human serum assessed as half-life incubated for 22 to 24 hrs by LC-MS/MS method. The format is ADME, cell-free. The settings on record: time 22-24 hrs.
Data set [5] in a line: Total clearance in Sprague-Dawley rat at 1 umol/kg, iv administered as cassette dose measured upto 6 hrs by LC-MS/MS method. The format is ADME, organism-based. The settings on record: in vivo, dose 1 µmol/kg.
Data set [6] can be described thus: AUC in Sprague-Dawley rat at 1 umol/kg, iv administered as cassette dose measured upto 6 hrs by LC-MS/MS method. The conditions noted are these: in vivo, dose 1 µmol/kg. The format is ADME, organism-based.

Regarding `CN1CC[C@]23c4c5ccc(O)c4O[C@H]2[C@@H](O)C=C[C@H]3[C@H]1C5`, the Activity entry in data set [1] was “Dose-dependent-effect”.
The term half-life denotes the time needed for the level to fall by half in the phase considered. In general, pIC50 refers to the negative decadic logarithm of the IC50, by convention in mol/L. Consider `CC(C)C[C@@H]1NC(=O)[C@H](CCCNC(=N)N)NC(=O)CNC(=O)[C@H](Cc2ccccc2)N(C)C(=O)CNC(=O)[C@H](Cc2c[nH]c3ccccc23)NC(=O)[C@H](Cc2ccc(O)cc2)NC(=O)[C@H](CCC(=O)O)NC(=O)[C@H](C(C)C)NC(=O)[C@H](CO)NC(=O)[C@H](CCCCN)NC(=O)[C@H](Cc2ccccc2)NC(=O)CSC[C@@H](C(=O)N(C)CC(N)=O)NC(=O)[C@H](Cc2c[nH]cn2)NC(=O)[C@H](CC(=O)O)NC(=O)[C@H](Cc2ccc(O)cc2)NC(=O)[C@H](Cc2ccc(O)cc2)NC(=O)[C@H](CCCCN)NC1=O` ({CH2CO}-FKSVEYWG[NMeF]GRLKYYDHC[Sar]-NH2; thioether N-18), for which the half-life in data set [2] was 1920 min; in data set [4], 150 min. Further, the pIC50 in data set [3] was 7.46.
Regarding `CC(C)C[C@@H]1NC(=O)[C@H](CCCNC(=N)N)NC(=O)CNC(=O)[C@H](Cc2ccccc2)N(C)C(=O)CNC(=O)[C@H](Cc2c[nH]c3ccccc23)NC(=O)[C@H](Cc2ccc(O)cc2)NC(=O)[C@H](CO)NC(=O)[C@H](C(C)C)NC(=O)[C@H](CO)NC(=O)[C@H](CCCCN)NC(=O)[C@H](Cc2ccccc2)NC(=O)CSC[C@@H](C(=O)N(C)CC(N)=O)NC(=O)[C@H](Cc2c[nH]cn2)NC(=O)[C@H](CC(N)=O)NC(=O)[C@H](Cc2ccc(O)cc2)NC(=O)[C@H](Cc2ccc(O)cc2)NC(=O)[C@H](CCCCN)NC1=O` ({CH2CO}-FKSVSYWG[NMeF]GRLKYYNHC[Sar]-NH2; thioether N-18), the half-life in data set [2] is 270 min; in data set [4] it was 174 min. The pIC50 in data set [3] is 7.66.
Consider `CC(C)C[C@@H]1NC(=O)[C@H](CC(N)=O)NC(=O)CNC(=O)[C@H](Cc2ccccc2)N(C)C(=O)CNC(=O)[C@H](Cc2c[nH]c3ccccc23)NC(=O)[C@H](Cc2ccc(O)cc2)NC(=O)[C@H](C)NC(=O)[C@H](C(C)C)NC(=O)[C@H](CO)NC(=O)[C@H](CO)NC(=O)[C@H](Cc2ccccc2)NC(=O)CSC[C@@H](C(=O)NCC(N)=O)NC(=O)[C@H](Cc2c[nH]cn2)NC(=O)[C@H](CC(N)=O)NC(=O)[C@H](Cc2ccc(O)cc2)NC(=O)[C@H](Cc2ccc(O)cc2)NC(=O)[C@H](C(C)C)NC1=O` ({CH2CO}-FSSVAYWG[NMeF]GNLVYYNHCG-NH2; thioether N-18), for which the pIC50 in data set [3] is 7.59.
Broadly, the clearance is the rate of elimination divided by the concentration. A high value points to efficient removal. By AUC is commonly meant concentration integrated over time. A higher AUC goes with high exposure. Molecule `CC[C@H](C)[C@@H]1NC(=O)CNC(=O)[C@H](Cc2ccccc2)N(C)C(=O)CNC(=O)[C@H](Cc2c[nH]c3ccccc23)NC(=O)[C@H](Cc2ccc(O)cc2)NC(=O)[C@H](CCC(=O)O)NC(=O)[C@H](C(C)C)NC(=O)[C@H](CO)NC(=O)[C@H](CO)NC(=O)[C@H](Cc2ccccc2)NC(=O)CSC[C@@H](C(=O)NCC(N)=O)NC(=O)[C@H](Cc2cnc[nH]2)NC(=O)[C@H](CC(=O)O)NC(=O)[C@H](Cc2ccc(O)cc2)NC(=O)[C@H](Cc2c[nH]c3ccccc23)NC(=O)[C@H](CCC(=O)O)NC(=O)[C@H](CC(C)C)NC1=O` ({CH2CO}-FSSVEYWG[NMeF]GILEWYDHCG-NH2; thioether N-18) showed a clearance in data set [5] of 21.3 mL/min/kg. In data set [6], this molecule displayed an AUC at 6 h of 0.786 µM·h. Also, the half-life in data set [2] and in data set [4] was more than 4320 min throughout. In data set [3], the pIC50 was 7.47.
Turning to `CC(C)C[C@@H]1NC(=O)[C@H](CC(N)=O)NC(=O)CNC(=O)[C@H](Cc2ccccc2)N(C)C(=O)CNC(=O)[C@H](Cc2c[nH]c3ccccc23)NC(=O)[C@H](Cc2ccc(O)cc2)NC(=O)[C@H](CO)NC(=O)[C@H](C(C)C)NC(=O)[C@H](CO)NC(=O)[C@H](CO)NC(=O)[C@H](Cc2ccccc2)NC(=O)CSC[C@@H](C(=O)NCC(N)=O)NC(=O)[C@H](Cc2c[nH]cn2)NC(=O)[C@H](CC(N)=O)NC(=O)[C@H](Cc2ccc(O)cc2)NC(=O)[C@H](Cc2c[nH]c3ccccc23)NC(=O)[C@H](C(C)C)NC1=O` ({CH2CO}-FSSVSYWG[NMeF]GNLVWYNHCG-NH2; thioether N-18), in data set [3], the pIC50 was 7.39.
`CC(C)C[C@@H]1NC(=O)[C@H](CC(N)=O)NC(=O)CNC(=O)[C@H](Cc2ccccc2)N(C)C(=O)CNC(=O)[C@H](Cc2c[nH]c3ccccc23)NC(=O)[C@H](Cc2ccc(O)cc2)NC(=O)[C@H](CO)NC(=O)[C@H](C(C)C)NC(=O)[C@H](CO)NC(=O)[C@H](CO)NC(=O)[C@H](Cc2ccccc2)NC(=O)CSC[C@@H](C(=O)N(C)CC(N)=O)NC(=O)[C@H](Cc2c[nH]cn2)NC(=O)[C@H](CC(N)=O)NC(=O)[C@H](Cc2ccc(O)cc2)NC(=O)[C@H](Cc2c[nH]c3ccccc23)NC(=O)[C@H](C(C)C)NC1=O` ({CH2CO}-FSSVSYWG[NMeF]GNLVWYNHC[Sar]-NH2; thioether N-18): in data set [3], the pIC50 was 7.82.
Regarding `CC(C)C[C@@H]1NC(=O)[C@H](CC(N)=O)NC(=O)CNC(=O)[C@H](Cc2ccccc2)N(C)C(=O)CNC(=O)[C@H](Cc2c[nH]c3ccccc23)NC(=O)[C@H](Cc2ccc(O)cc2)NC(=O)[C@H](CO)NC(=O)[C@H](C(C)C)NC(=O)[C@H](CO)NC(=O)[C@H](CO)NC(=O)[C@H](Cc2ccccc2)NC(=O)CSC[C@@H](C(=O)NCC(N)=O)NC(=O)[C@H](Cc2c[nH]cn2)NC(=O)[C@H](CC(N)=O)N(C)C(=O)[C@H](Cc2ccc(O)cc2)NC(=O)[C@H](Cc2c[nH]c3ccccc23)NC(=O)[C@H](C(C)C)NC1=O` ({CH2CO}-FSSVSYWG[NMeF]GNLVWY[NMeN]HCG-NH2; thioether N-18), the negative logarithm of the IC50 (pIC50) in data set [3] is 7.32.
Turning to `CC(C)C[C@@H]1NC(=O)[C@H](CC(N)=O)NC(=O)CNC(=O)[C@H](Cc2ccccc2)N(C)C(=O)CNC(=O)[C@H](Cc2c[nH]c3ccccc23)NC(=O)[C@H](Cc2ccc(O)cc2)NC(=O)[C@H](CO)NC(=O)[C@H](C(C)C)NC(=O)[C@H](CO)NC(=O)[C@H](CO)NC(=O)[C@H](Cc2ccccc2)NC(=O)CSC[C@@H](C(=O)NCC(N)=O)NC(=O)[C@H](Cc2cnc[nH]2)NC(=O)[C@H](CC(=O)O)NC(=O)[C@H](Cc2ccc(O)cc2)NC(=O)[C@H](Cc2ccc(O)cc2)NC(=O)[C@H](C(C)C)NC1=O` ({CH2CO}-FSSVSYWG[NMeF]GNLVYYDHCG-NH2; thioether N-18), the pIC50 in data set [3] was 7.62.
Still for that read-out and setting: the value for `CC(C)C[C@@H]1NC(=O)[C@H](CC(N)=O)NC(=O)CNC(=O)[C@H](Cc2ccccc2)N(C)C(=O)CNC(=O)[C@H](Cc2c[nH]c3ccccc23)NC(=O)[C@H](Cc2ccc(O)cc2)NC(=O)[C@H](CO)NC(=O)[C@H](C(C)C)NC(=O)[C@H](CO)NC(=O)[C@H](CO)NC(=O)[C@H](Cc2ccccc2)NC(=O)CSC[C@@H](C(=O)NCC(N)=O)NC(=O)[C@H](Cc2c[nH]cn2)NC(=O)[C@H](CC(N)=O)NC(=O)[C@H](Cc2ccc(O)cc2)NC(=O)[C@H](Cc2ccc(O)cc2)NC(=O)[C@H](C(C)C)NC1=O` ({CH2CO}-FSSVSYWG[NMeF]GNLVYYNHCG-NH2; thioether N-18) was 8.22; that for `CC(C)C[C@@H]1NC(=O)[C@H](CC(N)=O)NC(=O)CNC(=O)[C@H](Cc2ccccc2)N(C)C(=O)CNC(=O)[C@H](Cc2c[nH]c3ccccc23)NC(=O)[C@H](Cc2ccc(O)cc2)NC(=O)[C@H](CO)NC(=O)[C@H](C(C)C)NC(=O)[C@H](CO)NC(=O)[C@H](CO)NC(=O)[C@H](Cc2ccccc2)NC(=O)CSC[C@@H](C(=O)NCC(N)=O)NC(=O)[C@H](Cc2c[nH]cn2)NC(=O)[C@H](CO)NC(=O)[C@H](Cc2ccc(O)cc2)NC(=O)[C@H](Cc2ccc(O)cc2)NC(=O)[C@H](C(C)C)NC1=O` ({CH2CO}-FSSVSYWG[NMeF]GNLVYYSHCG-NH2; thioether N-18) was 6.73.
Still for that read-out and setting: the value for `CC(C)C[C@H]1C(=O)N[C@@H](C(C)C)C(=O)N[C@@H](Cc2c[nH]c3ccccc23)C(=O)N[C@@H](Cc2ccc(O)cc2)C(=O)N[C@@H](CC(N)=O)C(=O)N[C@@H](Cc2c[nH]cn2)C(=O)N[C@H](C(=O)NCC(N)=O)CSCC(=O)N[C@@H](Cc2ccccc2)C(=O)N[C@@H](CO)C(=O)N[C@@H](CO)C(=O)N[C@@H](C(C)C)C(=O)N[C@@H](CO)C(=O)N[C@@H](Cc2ccc(O)cc2)C(=O)N[C@@H](Cc2c[nH]c3ccccc23)C(=O)NCC(=O)N(C)[C@@H](Cc2ccccc2)C(=O)NCC(=O)N[C@@H](CC(N)=O)C(=O)N1C` ({CH2CO}-FSSVSYWG[NMeF]GN[NMeL]VWYNHCG-NH2; thioether N-18) was 7.09; that for `CC(C)C[C@@H]1NC(=O)[C@H](CC(N)=O)NC(=O)CNC(=O)[C@H](Cc2ccccc2)N(C)C(=O)CNC(=O)[C@H](Cc2c[nH]c3ccccc23)NC(=O)[C@H](Cc2ccc(O)cc2)N(C)C(=O)[C@H](CO)NC(=O)[C@H](C(C)C)NC(=O)[C@H](CO)NC(=O)[C@H](CO)NC(=O)[C@H](Cc2ccccc2)NC(=O)CSC[C@@H](C(=O)NCC(N)=O)NC(=O)[C@H](Cc2c[nH]cn2)NC(=O)[C@H](CC(N)=O)NC(=O)[C@H](Cc2ccc(O)cc2)NC(=O)[C@H](Cc2c[nH]c3ccccc23)NC(=O)[C@H](C(C)C)NC1=O` ({CH2CO}-FSSVS[NMeY]WG[NMeF]GNLVWYNHCG-NH2; thioether N-18) was 7.66.
On to `CC(C)C[C@@H]1NC(=O)[C@H](CC(N)=O)NC(=O)CNC(=O)[C@H](Cc2ccccc2)N(C)C(=O)CNC(=O)[C@H](Cc2c[nH]c3ccccc23)NC(=O)[C@H](Cc2ccc(O)cc2)NC(=O)[C@H](CO)NC(=O)[C@H](C(C)C)NC(=O)[C@H](CO)NC(=O)[C@H](CO)N(C)C(=O)[C@H](Cc2ccccc2)NC(=O)CSC[C@@H](C(=O)NCC(N)=O)NC(=O)[C@H](Cc2c[nH]cn2)NC(=O)[C@H](CC(N)=O)NC(=O)[C@H](Cc2ccc(O)cc2)NC(=O)[C@H](Cc2c[nH]c3ccccc23)NC(=O)[C@H](C(C)C)NC1=O` ({CH2CO}-F[NMeS]SVSYWG[NMeF]GNLVWYNHCG-NH2; thioether N-18), for which the pIC50 in data set [3] was 7.89.
